In patent US6322962A, “Sterol-regulated Site-1 protease and assays of modulators thereof” (Board of Regents, The University of Texas System, priority 1999, dated 2001):
Peptide text beside a SMILES is read from it. * marks the point of attachment. AMC = Cc1cc(=O)oc2cc(N*)ccc12; Boc = CC(C)(C)OC(=O)*

What was measured:
purified S1P(983)-C = molecular target: T1, purified S1P(983)-C (Cricetulus griseus, UniProt Q9Z2A8, T875N); assay: Fluorogenic peptide assay for S1P activity (cleavage of MCA-conjugated peptides); type: biochemical, hamster; settings: for cleavage of the peptide: result in words
T1 construct: Truncated S1P (amino acids 1-983); GGR linker (NotI site); made in house; host or cells: SRD-12B cells (mutant CHO cells lacking S1P) stably transfected with pCMV-S1P(983)-Myc-His (TR-3117, 'S1P(983) cells'); secreted into the medium and purified on Ni-NTA
T1 sequence (Q9Z2A8 187-983 T875N): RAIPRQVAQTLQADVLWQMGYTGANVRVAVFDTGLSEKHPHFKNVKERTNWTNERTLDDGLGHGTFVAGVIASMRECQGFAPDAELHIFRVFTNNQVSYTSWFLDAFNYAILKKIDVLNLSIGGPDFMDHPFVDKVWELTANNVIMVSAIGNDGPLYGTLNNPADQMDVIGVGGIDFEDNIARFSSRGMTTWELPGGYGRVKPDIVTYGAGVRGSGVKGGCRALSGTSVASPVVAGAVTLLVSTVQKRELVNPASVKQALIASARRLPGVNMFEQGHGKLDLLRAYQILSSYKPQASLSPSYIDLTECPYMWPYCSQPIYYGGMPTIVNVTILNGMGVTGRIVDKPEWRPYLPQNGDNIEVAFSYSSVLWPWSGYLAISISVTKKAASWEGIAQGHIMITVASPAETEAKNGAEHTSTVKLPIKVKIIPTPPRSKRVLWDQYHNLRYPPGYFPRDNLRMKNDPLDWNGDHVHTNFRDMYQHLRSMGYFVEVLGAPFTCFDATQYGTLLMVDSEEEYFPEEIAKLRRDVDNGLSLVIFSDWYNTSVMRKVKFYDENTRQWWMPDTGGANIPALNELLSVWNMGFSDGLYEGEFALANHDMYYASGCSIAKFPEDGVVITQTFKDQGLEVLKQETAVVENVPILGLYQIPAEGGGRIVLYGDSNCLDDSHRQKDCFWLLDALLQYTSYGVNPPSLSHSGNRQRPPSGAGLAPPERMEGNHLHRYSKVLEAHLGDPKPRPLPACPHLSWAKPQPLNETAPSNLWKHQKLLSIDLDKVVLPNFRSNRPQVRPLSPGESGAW
Method: Fluorogenic Peptide Assay for S1P Activity
S1P activity was measured fluorometrically with MCA-conjugated peptidyl substrates. Each reaction was carried out in 0.2 ml of assay buffer (25 mM Tris, 25 mM Mes, 25 mM acetic acid, and 1 mM CaCl2 adjusted to pH 8.0 with concentrated NaOH). Reactions contained MCA-peptide (final concentration 100 μM, added in 2 μl DMSO) and […] of purified S1P(983)-C. After incubation for 0.5-5 h at 37° C., each reaction was terminated by addition of 1 ml of ice-cold 5 mM sodium EDTA. The liberated 7-amino-4-methyl-coumarin (AMC) was measured with a Perkin-ElmerLS-30 luminescence spectrometer (360 nm excitation, 460 nm emission). A standard curve of fluorescence intensity was generated with different concentrations of AMC (Promega).
Similar substrates have been used to assay furin, prohormone convertases, and other subtilisin-related enzymes (Nakayama, 1997). […] The sequence of this peptide corresponds to the sequence at Site-B of S1P, which is known to be cleaved by S1P in an autocatalytic reaction. Fluorescence rose linearly with time for 5 h. […] This differs from the observations with furin and the prohormone convertases, whose pH optima are generally in the range of 6-7 (Nakayama, 1997).
The indicated fluorogenic peptide-MCA (100 μM) was incubated with 3 μg of purified S1P(983)-C at 37° C. for 5 h. The S1P activity of Ac-VFRSLK-MCA (SEQ ID NO:13, 930 pmol per min/mg protein) was set at 1.0, and the activity of the other substrates was expressed relative to this value. Each value represents the average of duplicate incubations, which varied from each other by <10%.

SREBP-2 = assay: Immunoblot of cleavage of HSV-tagged SREBP-2 in transfected SRD-12B cells; type: cell-based, hamster
Method: On day 0, SRD-12B cells were set up at a density of 6×10^5 cells/60-mm dish in medium B. On day 1, cells were transfected with 4 μg of the indicated plasmid DNA plus 12 μl of LipofectAMINE™ reagent (Life Technologies) according to the manufacturer's instructions with modifications as follows. LipofectAMINE™/DNA complexes were formed in 1 ml of serum-free medium for 15 min at room temperature, and 0.5 ml were added to 1 ml of serum-free medium per dish. […] After incubation at 37 ° C. for 20 h, the cells received N-acetyl-leucinal-leucinal norleucinal (ALLN) at a final concentration of 25 μg/ml. […] After boiling for 5 min, the proteins were subjected to SDS-PAGE and transferred to Hybond-C Extra nitrocellulose filters (Amersham). The filters were incubated with the antibodies described in the figure legends. […] Gels were calibrated with prestained molecular weight markers (New England Biolabs, Beverly, Mass.). Filters were exposed to X-Omat Blue XB-1 film (Kodak, Rochester, N.Y.) with intensifying screens at room temperature for the indicated time.
Cell membranes and nuclear extracts were subjected to electrophoresis and blotted with an antibody against the HSV epitope-tag.
In a more direct test for S1P catalytic activity, the mutant plasmids were transfected into the SRD-12B cells together with pTK-HSV-BP2. Membranes and nuclear extracts were subjected to SDS-PAGE and blotted with an antibody against the HSV-tagged SREBP-2 (FIG. 9B).
The inventors cotransfected cDNAs encoding wild-type S1P or one of the mutants. Cell membrane pellets and nuclear extracts were subjected to SDS-PAGE. and the NH2 -terminus of SREBP-2 was visualized by immunoblotting with anti-HSV (FIG. 16A).

Molecule	Relative Activity (purified S1P(983)-C; 100 μM peptide-MCA, 3 μg S1P(983)-C, 37° C., 5 h, Ac-VFRSLK-MCA set at 1.0)	cleavage of the peptide (purified S1P(983)-C)	cleavage of the peptide (purified S1P(983)-C; listed as RVRR-MCA)	cleavage of SREBP-2 by S1P or S1P mutant (SREBP-2; SRD-12B cells, HSV-tagged SREBP-2)	expression level required for SREBP-2 cleavage, compared to wild-type S1P (SREBP-2; pTK plasmids, FIG. 16)
Cc1cc(=O)oc2cc(NC(=O)[C@H](CCCNC(=N)N)NC(=O)[C@H](CCCNC(=N)N)NC(=O)[C@@H](NC(=O)[C@H](CCCNC(=N)N)NC(=O)OC(C)(C)C)C(C)C)ccc12 [Boc-RVRR-MCA, Boc-Arg-Val-Arg-Arg-MCA] (Boc-RVRR-{AMC})	< 0.1	did not cleave	does not cleave		
Site-B mutant: S1P with amino acids 134-137 mutated from RSLK to AAAA (protein) MKLINIWLLLLVVLLCGKKHLGDRLGKKAFEKASCPSCSHLTLKVEFSSTVVEYEYIVAFNGYFTAKARNSFISSALKSSEVDNWRIIPRNNPSSDYPSDFEVIQIKEKQKAGLLTLEDHPNIKRVTPQRKVFAAAAFAESDPIVPCNETRWSQKWQSSRPLRRASLSLGSGFWHATGRHSSRRLLRAIPRQVAQTLQADVLWQMGYTGANVRVAVFDTGLSEKHPHFKNVKERTNWTNERTLDDGLGHGTFVAGVIASMRECQGFAPDAELHIFRVFTNNQVSYTSWFLDAFNYAILKKIDVLNLSIGGPDFMDHPFVDKVWELTANNVIMVSAIGNDGPLYGTLNNPADQMDVIGVGGIDFEDNIARFSSRGMTTWELPGGYGRVKPDIVTYGAGVRGSGVKGGCRALSGTSVASPVVAGAVTLLVSTVQKRELVNPASVKQALIASARRLPGVNMFEQGHGKLDLLRAYQILSSYKPQASLSPSYIDLTECPYMWPYCSQPIYYGGMPTIVNVTILNGMGVTGRIVDKPEWRPYLPQNGDNIEVAFSYSSVLWPWSGYLAISISVTKKAASWEGIAQGHIMITVASPAETEAKNGAEHTSTVKLPIKVKIIPTPPRSKRVLWDQYHNLRYPPGYFPRDNLRMKNDPLDWNGDHVHTNFRDMYQHLRSMGYFVEVLGAPFTCFDATQYGTLLMVDSEEEYFPEEIAKLRRDVDNGLSLVIFSDWYNTSVMRKVKFYDENTRQWWMPDTGGANIPALNELLSVWNMGFSDGLYEGEFALANHDMYYASGCSIAKFPEDGVVITQTFKDQGLEVLKQETAVVENVPILGLYQIPAEGGGRIVLYGDSNCLDDSHRQKDCFWLLDALLQYTSYGVNPPSLSHSGNRQRPPSGAGLAPPERMEGNHLHRYSKVLEAHLGDPKPRPLPACPHLSWAKPQPLNETAPSNLWKHQKLLSIDLDKVVLPNFRSNRPQVRPLSPGESGAWDIPGGIMPGRYNQEVGQTIPVFAFLGAMVALAFFVVQISKAKSRPKRRRPRAKRPQLTQQTHPPRTPSV				weak activity	> 10 -fold
